Several values for one entry are separate records, joined by “and”; a condition that tells them apart may be missing. Equal values may be shown once.

The subject of this assay is BDF1 mice, Adenocarcinoma 755 s.c., tumor weight T/C. Description: NCI In Vivo Anticancer Drug Screen. Data for tumor model Adenocarcinoma 755 (subcutaneous) in B6D2F1 (BDF1) mice. Conditions: endpoint: mean tumor weight, higher = larger tumour. The procedure: The antitumor activity of compounds was measured in mice bearing transplantable tumors. Survival or tumor size were measured and the results are expressed as the measurement made in the treated group (T) divided by the measurement made in the vehicle treated control group (C). The tumor model used in this assay is Adenocarcinoma 755 (subcutaneous) in B6D2F1 (BDF1) mice

The mark [1] stands for this setting: dose: 15.0 mg/kg/injection, schedule: Q01DX011 (ip), vehicle: methylcellulose (MC).
Setting [2] is: dose: 31.0 mg/kg/injection, schedule: Q01DX011 (ip), vehicle: methylcellulose (MC).
Setting [3] is: dose: 250.0 mg/kg/injection, schedule: Q01DX011 (ip), vehicle: methylcellulose (MC).
Where [4] appears, read: dose: 125.0 mg/kg/injection, schedule: Q01DX011 (ip), vehicle: methylcellulose (MC).
Setting [5] is: dose: 30.0 mg/kg/injection, schedule: Q01DX011 (ip), vehicle: methylcellulose (MC).

As to `CC(=O)OCC(=O)[C@@]1(O)CC[C@H]2[C@@H]3CCC4=CC(=O)CC[C@]4(C)[C@H]3[C@@H](O)C[C@@]21C`, the T/C (dose: 1.13 mg/kg/injection, schedule: Q01DX011 (sc), vehicle: steriod suspending solution) is 225 % of control; the T/C (dose: 2.25 mg/kg/injection, schedule: Q01DX011 (sc), vehicle: steriod suspending solution) was 109 % of control; the T/C (dose: 2.5 mg/kg/injection, schedule: Q01DX011 (ip), vehicle: steriod suspending solution) was 60 % of control; the T/C (dose: 3.75 mg/kg/injection, schedule: Q01DX011 (sc), vehicle: steriod suspending solution) is 117 % of control; the T/C (dose: 4.5 mg/kg/injection, schedule: Q01DX011 (sc), vehicle: steriod suspending solution) is 153 % of control; the T/C (dose: 5.0 mg/kg/injection, schedule: Q01DX011 (ip), vehicle: steriod suspending solution) was 73 % of control. For the same compound, the T/C was 56 % of control (dose: 5.0 mg/kg/injection, schedule: Q01DX011 (sc), vehicle: steriod suspending solution); 85 % of control (dose: 7.5 mg/kg/injection, schedule: Q01DX011 (sc), vehicle: steriod suspending solution); 54 % of control (dose: 9.0 mg/kg/injection, schedule: Q01DX011 (sc), vehicle: steriod suspending solution); 88 % of control (dose: 10.0 mg/kg/injection, schedule: Q01DX006 (iv), vehicle: steriod suspending solution); 50 % of control (dose: 10.0 mg/kg/injection, schedule: Q01DX011 (ip), vehicle: steriod suspending solution); 33 % of control (dose: 10.0 mg/kg/injection, schedule: Q01DX011 (sc), vehicle: steriod suspending solution). Moreover, the T/C by setting is: (dose: 20.0 mg/kg/injection, schedule: Q01DX006 (iv), vehicle: steriod suspending solution) 32 % of control; (dose: 20.0 mg/kg/injection, schedule: Q01DX011 (ip), vehicle: steriod suspending solution) 17 % of control; (dose: 20.0 mg/kg/injection, schedule: Q01DX011 (sc), vehicle: steriod suspending solution) 63 % of control; (dose: 30.0 mg/kg/injection, schedule: Q01DX011 (sc), vehicle: steriod suspending solution) 19 % of control and 28 % of control; (dose: 31.25 mg/kg/injection, schedule: Q01DX011 (sc), vehicle: steriod suspending solution) 19 % of control; (dose: 40.0 mg/kg/injection, schedule: Q01DX006 (iv), vehicle: steriod suspending solution) 66 % of control. Also, the T/C (dose: 40.0 mg/kg/injection, schedule: Q01DX011 (sc), vehicle: steriod suspending solution) is 15 % of control; the T/C (dose: 45.0 mg/kg/injection, schedule: Q01DX011 (sc), vehicle: steriod suspending solution) is 27 % of control; the T/C (dose: 50.0 mg/kg/injection, schedule: Q01DX011 (sc), vehicle: steriod suspending solution) was 16 % of control; the T/C (dose: 62.5 mg/kg/injection, schedule: Q01DX011 (sc), vehicle: steriod suspending solution) was 21 % of control; the T/C (dose: 70.0 mg/kg/injection, schedule: Q01DX001 (sc), vehicle: steriod suspending solution) is 34 % of control and 41 % of control; the T/C (dose: 70.0 mg/kg/injection, schedule: Q07DX002 (sc), vehicle: steriod suspending solution) was 17 % of control. The T/C is 19 % of control (dose: 80.0 mg/kg/injection, schedule: Q01DX006 (iv), vehicle: steriod suspending solution); 2 % of control (dose: 125.0 mg/kg/injection, schedule: Q01DX011 (sc), vehicle: steriod suspending solution); 23 % of control and 43 % of control (dose: 140.0 mg/kg/injection, schedule: Q01DX001 (sc), vehicle: steriod suspending solution); 28 % of control (dose: 160.0 mg/kg/injection, schedule: Q01DX006 (iv), vehicle: steriod suspending solution); 32 % of control and 46 % of control (dose: 280.0 mg/kg/injection, schedule: Q01DX001 (sc), vehicle: steriod suspending solution); 14 % of control (dose: 280.0 mg/kg/injection, schedule: Q07DX002 (sc), vehicle: steriod suspending solution).
With `CCc1c(Cl)nc(N)nc1Nc1ccccc1Br`, the T/C runs as follows: under setting [1], 96 % of control; under setting [2], 101 % of control; (dose: 62.0 mg/kg/injection, schedule: Q01DX011 (ip), vehicle: methylcellulose (MC)) 76 % of control; under setting [3], 75 % of control.
Take `Cc1ccccc1N=Nc1ccc(N=Nc2ccc(O)cc2)c(C)c1`: the T/C was 74 % of control (dose: 1.87 mg/kg/injection, schedule: Q01DX011 (ip), vehicle: methylcellulose (MC)); 77 % of control (dose: 1.87 mg/kg/injection, schedule: Q01DX011 (ip), vehicle: saline); 89 % of control (dose: 3.25 mg/kg/injection, schedule: Q01DX011 (ip), vehicle: methylcellulose (MC)); 101 % of control (dose: 3.25 mg/kg/injection, schedule: Q01DX011 (ip), vehicle: saline); 101 % of control (dose: 7.5 mg/kg/injection, schedule: Q01DX011 (ip), vehicle: methylcellulose (MC)); 68 % of control (dose: 7.5 mg/kg/injection, schedule: Q01DX011 (ip), vehicle: saline). In addition, the T/C (dose: 15.0 mg/kg/injection, schedule: Q01DX011 (ip), vehicle: saline) was 88 % of control.
Take `CC(=O)OCC1CCCC(n2cnc3c(Cl)ncnc32)O1` (centres undefined): the T/C runs as follows: (dose: 62.5 mg/kg/injection, schedule: Q01DX011 (ip), vehicle: methylcellulose (MC)) 74 % of control; under setting [4], 52 % of control; under setting [3], 26 % of control.
In the case of `Cn1c(=O)c2c(nc(CN3CCOCC3)n2C)n(C)c1=O`, the T/C runs as follows: under setting [5], 122 % of control; (dose: 60.0 mg/kg/injection, schedule: Q01DX011 (ip), vehicle: methylcellulose (MC)) 81 % of control; (dose: 120.0 mg/kg/injection, schedule: Q01DX011 (ip), vehicle: methylcellulose (MC)) 80 % of control; (dose: 240.0 mg/kg/injection, schedule: Q01DX011 (ip), vehicle: methylcellulose (MC)) 92 % of control.
As for `NC(=S)N/N=C/c1cccnc1`, the T/C runs as follows: (dose: 1:1000.0 dilution, schedule: Q01DX006 (ip), vehicle: water) 124 % of control; (dose: 1:2000.0 dilution, schedule: Q01DX006 (ip), vehicle: water) 110 % of control.
Take `CSc1ncc(Br)c(=S)[nH]1`: the T/C is 74 % of control under setting [1] and 70 % of control under setting [2].
Take `CC(C)CCn1cnc2c(SCc3ccccc3F)nc(N)nc21`: the T/C was 62 % of control under setting [5]; 65 % of control (dose: 100.0 mg/kg/injection, schedule: Q01DX011 (ip), vehicle: methylcellulose (MC)); 10 % of control (dose: 300.0 mg/kg/injection, schedule: Q01DX011 (ip), vehicle: methylcellulose (MC)).
For the compound `C=CC1CN2CCC1CC2C(O)c1ccnc2ccc(OC)cc12` (centres undefined), the T/C reads like this: (dose: 28.96 mg/kg/injection, schedule: Q01DX011 (ip), vehicle: carboxymethylcellulose (CMC)) 109 % of control; (dose: 57.93 mg/kg/injection, schedule: Q01DX011 (ip), vehicle: carboxymethylcellulose (CMC)) 121 % of control; (dose: 92.68 mg/kg/injection, schedule: Q01DX011 (ip), vehicle: carboxymethylcellulose (CMC)) 70 % of control; (dose: 115.85 mg/kg/injection, schedule: Q01DX011 (ip), vehicle: carboxymethylcellulose (CMC)) 76 % of control; under setting [4], 82 % of control; (dose: 154.46 mg/kg/injection, schedule: Q01DX011 (ip), vehicle: carboxymethylcellulose (CMC)) 86 % of control. Further, the T/C runs as follows: (dose: 231.7 mg/kg/injection, schedule: Q01DX011 (ip), vehicle: carboxymethylcellulose (CMC)) 72 % of control; under setting [3], 91 % of control.
On to `Oc1ccc2ccccc2c1N=Nc1ccccc1`, for which the T/C by setting is: (dose: 50.0 mg/kg/injection, schedule: Q01DX011 (ip), vehicle: saline) 69 % of control; (dose: 100.0 mg/kg/injection, schedule: Q01DX011 (ip), vehicle: saline) 55 % of control; (dose: 200.0 mg/kg/injection, schedule: Q01DX011 (ip), vehicle: saline) 50 % of control.
In the case of `CN1CC[C@]23c4c5ccc(O)c4O[C@H]2C(=O)CC[C@H]3[C@H]1C5`, the T/C reads like this: (dose: 8.0 mg/kg/injection, schedule: Q01DX011 (ip), vehicle: methylcellulose (MC)) 53 % of control and 70 % of control; (dose: 16.0 mg/kg/injection, schedule: Q01DX011 (ip), vehicle: methylcellulose (MC)) 50 % of control and 75 % of control; (dose: 32.0 mg/kg/injection, schedule: Q01DX011 (ip), vehicle: methylcellulose (MC)) 61 % of control.

A word on the T/C: it is the result in the treated group divided by that in the control group, in per cent.

These data come from PubChem BioAssay AID180 (DTP/NCI, 2004).
